From US5279939A, “Protein protease inhibitors from streptomyces” (SmithKline Beecham Corporation, priority 1992, dated 1994)

Test system: trypsin
Experiment: chromogenic trypsin inhibition assay using KABI S2288 substrate
Type: biochemical
Details: 25 ng trypsin, 410 nm
Method: Trypsin inhibitory activity was determined in a chromogenic assay using KABI S2288 as substrate (HO ILE PRO ARG p-nitroanilide.) Scisson of the ARG-p-nitroanilide bond releases p-nitroaniline which absorbs at 410 nm; thus, the extent of cleavage is measured by the increase in absorbance at 410 nm. This assay was used in qualitative manner to determine the inhibitory activity of LTI and LEP-10. Briefly, serial two fold dilutions of either conditioned medium (CM) or ammonium sulfate concentrates (AS) of conditioned medium were mixed with 25 ng of trypsin and the substrate was added. After 30 min at room temperature, the assay was stopped by addition of acetic acid. The assay was carried out in microtiter plates, which were then read in an ELISA reader. Similar samples of PSN were included as controls. […] The data shown are the absorbances measured following cleavage of the chromogenic substrate by trypsin.

## plasminostreptin [PSN]
Ammonium sulfate concentrate (AS), reciprocal dilution 1, 30 min, No Inh. control 0.763 (LTI) / 0.751 (PSN)
  absorbance following cleavage of the chromogenic substrate by trypsin: 0.018
Ammonium sulfate concentrate (AS), reciprocal dilution 2, 30 min
  absorbance following cleavage of the chromogenic substrate by trypsin: 0.021
Ammonium sulfate concentrate (AS), reciprocal dilution 4, 30 min
  absorbance following cleavage of the chromogenic substrate by trypsin: 0.023
Ammonium sulfate concentrate (AS), reciprocal dilution 8, 30 min
  absorbance following cleavage of the chromogenic substrate by trypsin: 0.024
Ammonium sulfate concentrate (AS), reciprocal dilution 16, 30 min
  absorbance following cleavage of the chromogenic substrate by trypsin: 0.036
Ammonium sulfate concentrate (AS), reciprocal dilution 32, 30 min
  absorbance following cleavage of the chromogenic substrate by trypsin: 0.076
Conditioned medium (CM), reciprocal dilution 1, 30 min room temperature, No Inh. control 0.898 (LTI) / 0.772 (PSN)
  absorbance following cleavage of the chromogenic substrate by trypsin: 0.010
Conditioned medium (CM), reciprocal dilution 2, 30 min
  absorbance following cleavage of the chromogenic substrate by trypsin: 0.046
Conditioned medium (CM), reciprocal dilution 4, 30 min
  absorbance following cleavage of the chromogenic substrate by trypsin: 0.046
Conditioned medium (CM), reciprocal dilution 8, 30 min
  absorbance following cleavage of the chromogenic substrate by trypsin: 0.053
Conditioned medium (CM), reciprocal dilution 16, 30 min
  absorbance following cleavage of the chromogenic substrate by trypsin: 0.058
Conditioned medium (CM), reciprocal dilution 32, 30 min
  absorbance following cleavage of the chromogenic substrate by trypsin: 0.273
